In patent publication US9145411B2, “Substituted amino-pyrimidine derivatives” (Asana Biosciences, LLC, priority 2012, dated 2015) one finds IC50 data, which are given here for 23 compounds.

The target of one test is T1, mTOR kinase (Homo sapiens, UniProt P42345).
T1 construct: purchased Millipore, USA
Nature of the test: mTOR kinase TR-FRET assay. Type of test: biochemical. The settings on record: 20 μM ATP. The procedure: Compound inhibition for mTOR kinase was determined in a homogeneous TR-FRET assay using the Lance® ULight-p70 S6K (Thr 389) peptide (obtained from Perkin-Elmer). The ULight™-labeled synthetic peptide contains the amino acid residues surrounding Thr389 of human p70 S6K. The ULight-p70 S6K peptide is phosphorylated at Thr389 by mTOR. Phosphorylation motif: LGFTYVAP as substrate.
The compound dilution was carried out in 100% DMSO followed by a buffer dilution. The reaction buffer was HEPES (50 mM pH 7.5), EGTA (1 mM), MnCl2 (3 mM). Test compounds at various concentrations were pre-incubated with mTOR (Millipore, USA; 5 ng) for 60 min, and then the Lance® ULight-p70 S6K (Thr 389) peptide (50 nM) was added along with ATP (20 μM). After incubating the reaction mixture for 60 minutes at room temperature, the kinase reaction was terminated by the addition of EDTA (10 mM) followed by the addition of detection mix, i.e., 1 nM Eu-labeled anti-phospho-substrate antibody (Perkin Elmer, USA). The fluorescence emission at […] was measured upon excitation at 340 nm. IC50 values were subsequently determined using a sigmoidal dose-response curve (variable slope) in GraphPad Prism® 5 software.
Compounds of formula (I) caused inhibition of mTOR kinase activity as determined by this assay.

The target of another test is T2, PI3Kα (wild-type) (Homo sapiens, UniProt P42336).
T2 construct: made in house; host or cells: SF9 insect cells
T2 sequence (P42336 whole entry, species assumed): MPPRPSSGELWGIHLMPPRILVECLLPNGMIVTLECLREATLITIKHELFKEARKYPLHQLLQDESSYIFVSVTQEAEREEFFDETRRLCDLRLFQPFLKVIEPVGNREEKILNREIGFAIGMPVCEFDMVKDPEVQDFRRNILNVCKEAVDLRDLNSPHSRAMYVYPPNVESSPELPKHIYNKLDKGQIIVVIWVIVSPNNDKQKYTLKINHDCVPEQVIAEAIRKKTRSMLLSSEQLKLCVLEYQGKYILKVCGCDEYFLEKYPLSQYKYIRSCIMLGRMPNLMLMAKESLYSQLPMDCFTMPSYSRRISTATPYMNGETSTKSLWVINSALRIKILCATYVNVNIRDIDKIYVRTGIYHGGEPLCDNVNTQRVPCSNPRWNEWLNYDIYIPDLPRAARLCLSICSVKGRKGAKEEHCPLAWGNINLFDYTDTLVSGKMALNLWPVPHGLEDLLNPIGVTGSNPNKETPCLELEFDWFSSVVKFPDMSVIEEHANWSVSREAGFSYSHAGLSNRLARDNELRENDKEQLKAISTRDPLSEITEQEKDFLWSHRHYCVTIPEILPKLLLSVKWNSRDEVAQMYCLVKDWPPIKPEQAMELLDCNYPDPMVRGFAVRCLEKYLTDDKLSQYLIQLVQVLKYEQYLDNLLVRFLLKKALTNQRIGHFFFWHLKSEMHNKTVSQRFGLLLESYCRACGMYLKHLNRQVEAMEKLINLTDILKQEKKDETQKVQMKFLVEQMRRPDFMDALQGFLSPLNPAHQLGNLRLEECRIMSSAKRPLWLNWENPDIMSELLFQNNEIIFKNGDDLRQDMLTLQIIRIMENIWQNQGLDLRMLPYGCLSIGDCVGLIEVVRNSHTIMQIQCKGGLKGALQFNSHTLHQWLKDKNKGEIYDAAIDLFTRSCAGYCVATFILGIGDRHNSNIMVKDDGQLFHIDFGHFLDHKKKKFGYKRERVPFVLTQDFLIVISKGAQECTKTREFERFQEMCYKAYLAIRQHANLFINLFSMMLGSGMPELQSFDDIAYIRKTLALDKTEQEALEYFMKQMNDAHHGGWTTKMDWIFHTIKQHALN
T2 sequence (P27986 whole entry partner, species assumed): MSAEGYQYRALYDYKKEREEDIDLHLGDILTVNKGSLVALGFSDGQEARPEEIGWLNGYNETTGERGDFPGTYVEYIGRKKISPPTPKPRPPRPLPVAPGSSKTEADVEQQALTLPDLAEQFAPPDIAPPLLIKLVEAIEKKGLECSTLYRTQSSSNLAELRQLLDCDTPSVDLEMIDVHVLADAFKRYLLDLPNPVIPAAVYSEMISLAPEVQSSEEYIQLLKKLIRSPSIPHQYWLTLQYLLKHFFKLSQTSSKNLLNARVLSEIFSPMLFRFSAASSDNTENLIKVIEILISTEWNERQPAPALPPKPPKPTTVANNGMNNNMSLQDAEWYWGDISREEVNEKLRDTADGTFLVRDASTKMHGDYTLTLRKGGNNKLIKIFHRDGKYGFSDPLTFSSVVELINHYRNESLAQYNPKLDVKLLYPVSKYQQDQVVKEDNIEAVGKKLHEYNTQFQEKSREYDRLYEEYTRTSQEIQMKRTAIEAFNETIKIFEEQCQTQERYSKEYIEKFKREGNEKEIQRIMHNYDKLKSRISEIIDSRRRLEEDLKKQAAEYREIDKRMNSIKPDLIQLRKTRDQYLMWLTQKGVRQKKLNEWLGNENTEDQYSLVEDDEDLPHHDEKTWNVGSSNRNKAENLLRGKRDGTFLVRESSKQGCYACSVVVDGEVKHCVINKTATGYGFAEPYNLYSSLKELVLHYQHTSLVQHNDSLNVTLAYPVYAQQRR
Nature of the test: PI3 Kinase TR-FRET assay, PI3Kα (wild-type). Type of test: biochemical. The note with it: wild-type P110/P85α, 10 μM ATP. The procedure: The ability of compounds of the invention to inhibit PI3K activity was determined in a homogeneous TR-FRET assay using a PI3K assay kit (Millipore, USA; cat #33-016) according to manufacturer's instructions. PI3-Kinases (isoforms α, β, γ and δ) catalyze the phosphorylation of phosphatidylinositol, PIP2 to PIP3 in the presence of ATP and Mg^2+. The PIP3 product is detected by displacement of biotin-PIP3 from an energy transfer complex consisting of Europium labeled anti-GST monoclonal antibody, a GST-tagged PH domain, biotinylated PIP3 and Streptavidin-APC. Excitation of Europium in the complex results in an energy transfer to the APC and a fluorescence emission at 665 nm. The PIP3 product displaces biotin-PIP3 from the complex resulting in a loss of energy transfer and thus a decrease in signal.
To test for the ability of compounds to inhibit the activity of PI3Kα (wild-type), exemplary compounds of formula (I) were dissolved in DMSO and directly distributed into 384-well plates at a volume of 0.5 μL. 14.5 μL of P110/P85α/PIP2 mixture in buffer (obtained from the Millipore kit) containing MgCl2 (40 mM) and DTT (5 mM) was added to compound wells and incubated for 60 minutes at room temperature. P110/P85α was expressed in SF9 insect cells and purified nickel column extraction. Five ng of wild-type P110/P85α was used in the assay. The kinase reaction was started by the addition of ATP. The assay concentrations of both PIP2 and ATP were 10 μM. The reaction mixture was incubated for 30 minutes at room temperature and was terminated by the addition of stop mix and detection mix. Fluorescence was measured at 615 and 665 nm upon excitation at 340 nm in a Victor™ V5 fluorometer (Perkin Elmer, USA). The fluorescence emission ratio at 665 to 615 nm, proportional to the kinase activity, was plotted against the compound concentration to generate dose-response curves and IC50 values were determined using GraphPad Prism® 5 software.

T1 sequence (P42345 1362-2549 limits assumed): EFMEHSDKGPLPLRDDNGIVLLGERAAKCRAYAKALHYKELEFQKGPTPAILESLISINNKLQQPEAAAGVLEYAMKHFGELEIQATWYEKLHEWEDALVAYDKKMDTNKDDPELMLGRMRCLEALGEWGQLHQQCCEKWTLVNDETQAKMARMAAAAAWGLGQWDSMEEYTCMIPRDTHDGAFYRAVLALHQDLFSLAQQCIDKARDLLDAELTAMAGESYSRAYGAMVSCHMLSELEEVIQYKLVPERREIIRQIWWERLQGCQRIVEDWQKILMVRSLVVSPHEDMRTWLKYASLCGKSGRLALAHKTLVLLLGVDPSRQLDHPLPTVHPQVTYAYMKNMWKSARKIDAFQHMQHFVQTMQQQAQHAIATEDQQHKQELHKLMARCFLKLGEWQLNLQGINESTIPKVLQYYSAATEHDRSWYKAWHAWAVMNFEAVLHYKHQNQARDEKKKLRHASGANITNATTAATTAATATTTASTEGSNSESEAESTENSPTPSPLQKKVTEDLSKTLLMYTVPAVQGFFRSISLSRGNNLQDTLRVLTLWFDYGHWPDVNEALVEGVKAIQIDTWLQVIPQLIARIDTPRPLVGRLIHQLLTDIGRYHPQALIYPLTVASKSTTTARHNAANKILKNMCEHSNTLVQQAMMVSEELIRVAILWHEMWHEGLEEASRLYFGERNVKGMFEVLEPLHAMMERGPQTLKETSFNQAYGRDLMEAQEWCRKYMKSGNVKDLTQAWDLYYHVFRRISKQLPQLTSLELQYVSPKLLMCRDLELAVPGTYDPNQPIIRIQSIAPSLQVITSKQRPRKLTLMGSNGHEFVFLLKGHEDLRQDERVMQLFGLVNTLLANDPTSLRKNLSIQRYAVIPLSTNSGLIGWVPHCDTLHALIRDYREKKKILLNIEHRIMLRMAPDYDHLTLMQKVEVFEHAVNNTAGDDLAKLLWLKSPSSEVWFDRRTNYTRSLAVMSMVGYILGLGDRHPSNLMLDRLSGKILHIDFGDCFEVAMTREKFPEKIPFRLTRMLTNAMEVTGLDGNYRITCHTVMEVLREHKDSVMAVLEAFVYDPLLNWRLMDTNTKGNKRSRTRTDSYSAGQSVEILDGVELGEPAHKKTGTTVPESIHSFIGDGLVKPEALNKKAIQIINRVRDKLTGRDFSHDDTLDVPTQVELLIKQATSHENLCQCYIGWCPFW

Regarding `CC(=O)N1CCN(Cc2ccc3c(N4CCOCC4)nc(-c4cnc(N)nc4)nc3c2)CC1` [Example 92, 1-(4-((2-(2-amino-pyrimidin-5-yl)-4-morpholinoquinazolin-7-yl)methyl)piperazin-1-yl)ethanone], the IC50 on mTOR kinase and on PI3Kα (wild-type) was 201 to 10000 nM in each case. Consider `CS(=O)(=O)c1cncc(-c2ccc3c(N4CCOCC4)nc(-c4cnc(N)nc4)nc3c2)c1` [Example 18, 5-(7-(5-(methyl-sulfonyl)pyridin-3-yl)-4-morpholinoquinazolin-2-yl)pyrimidin-2-amine], for which the IC50 against mTOR kinase and at PI3Kα (wild-type) was 201 to 10000 nM in each case. On to `CN1CCN(C(=O)Nc2cccc(-c3ccc4c(N5CCOCC5)nc(-c5cnc(N)nc5)nc4c3)c2)CC1` [Example 87, N-(3-(2-(2-amino-pyrimidin-5-yl)-4-morpholinoquinazolin-7-yl)phenyl)-4-methyl-piperazine-1-carboxamide], for which the IC50 against mTOR kinase is 201 to 10000 nM; against PI3Kα (wild-type) it was under 50 nM. Compound `Nc1ncc(-c2nc(N3CCOCC3)c3ccc(-c4ccsc4)cc3n2)cn1` [Example 17, 5-(4-morpholino-7-(thiophen-3-yl)-quinazolin-2-yl)-pyrimidin-2-amine] had a concentration for half-maximal inhibition (IC50) at mTOR kinase of 50 to 200 nM. Turning to `Nc1ncc(-c2nc(N3CCOCC3)c3ncc(-c4ccc(NC(=O)C5CCC5)cc4)cc3n2)cn1` [Example 78, N-(4-(2-(2-amino-pyrimidin-5-yl)-4-morpholinopyrido[3,2-d]pyrimidin-7-yl)-phenyl)cyclobutane-carboxamide], on PI3Kα (wild-type), the IC50 was under 50 nM. On to `Nc1ncc(-c2nc(N3CCOCC3)c3ccc(-c4cncnc4)cc3n2)cn1` [Example 12, 5-(4-morpholino-7-(pyrimidin-5-yl)quinazolin-2-yl)pyrimidin-2-amine], for which the IC50 against mTOR kinase and on PI3Kα (wild-type) was 201 to 10000 nM each time. Turning to `Nc1ncc(-c2nc(N3CCOCC3)c3ncc(-c4ccc(NC(=O)c5ccco5)cc4)cc3n2)cn1` [Example 79, N-(4-(2-(2-amino-pyrimidin-5-yl)-4-morpholinopyrido[3,2-d]pyrimidin-7-yl)-phenyl)furan-2-carboxamide], the IC50 at PI3Kα (wild-type) was under 50 nM.

Take `Cc1cc(C(=O)Nc2cccc(-c3cnc4c(N5CCOCC5)nc(-c5cnc(N)nc5)nc4c3)c2)[nH]n1` [Example 75, N-(3-(2-(2-amino-pyrimidin-5-yl)-4-morpholinopyrido[3,2-d]pyrimidin-7-yl)phenyl)-3-methyl-1H-pyrazole-5-carboxamide]: the IC50 at mTOR kinase and on PI3Kα (wild-type) was under 50 nM in each case. `Nc1ncc(-c2nc(N3CCOCC3)c3ccc(-c4cccnc4F)cc3n2)cn1` [Example 19, 5-(7-(2-fluoropyridin-3-yl)-4-morpholino-quinazolin-2-yl)-pyrimidin-2-amine]: the IC50 against mTOR kinase and against PI3Kα (wild-type) was over 1000 nM in each case. On to `CC(=O)NC1CCN(Cc2ccc3c(N4CCOCC4)nc(-c4cnc(N)nc4)nc3c2)CC1` [Example 93, N-(1-((2-(2-amino-pyrimidin-5-yl)-4-morpholinoquinazolin-7-yl)methyl)piperidin-4-yl)-acetamide], for which the IC50 on mTOR kinase and at PI3Kα (wild-type) was 201 to 10000 nM throughout. Consider `Nc1ncc(-c2nc(N3CCOCC3)c3ncc(-c4cc(NC(=O)c5cccnc5)ccc4F)cc3n2)cn1` [Example 71, N-(3-(2-(2-amino-pyrimidin-5-yl)-4-morpholinopyrido[3,2-d]-pyrimidin-7-yl)-4-fluoro-phenyl)nicotinamide], for which the IC50 on mTOR kinase and against PI3Kα (wild-type) was under 50 nM in each case. Consider `CC(C)(O)C(=O)N1CCN(Cc2ccc3c(N4CCOCC4)nc(-c4cnc(N)nc4)nc3c2)CC1` [Example 91, 1-(4-((2-(2-amino-pyrimidin-5-yl)-4-morpholinoquinazolin-7-yl)methyl)piperazin-1-yl)-2-hydroxy-2-methyl-propan-1-one], for which the IC50 against mTOR kinase and against PI3Kα (wild-type) was 201 to 10000 nM each time. As to `Nc1ncc(-c2nc(N3CCOCC3)c3ncc(-c4ccc(NC(=O)C5CC5)cc4F)cc3n2)cn1` [Example 32, N-(4-(2-(2-amino-pyrimidin-5-yl)-4-morpholinopyrido[3,2-d]pyrimidin-7-yl)-3-fluorophenyl)cyclo-propanecarboxamide], the IC50 was 50 to 200 nM against mTOR kinase and under 50 nM at PI3Kα (wild-type).

`Nc1ncc(-c2nc(N3CCOCC3)c3ncc(-c4ccc(NC(=O)C5CC5)cc4)cc3n2)cn1` [Example 62, N-(4-(2-(2-amino-pyrimidin-5-yl)-4-morpholinopyrido[3,2-d]pyrimidin-7-yl)-phenyl)cyclopropane-carboxamide]: the IC50 on mTOR kinase is 50 to 200 nM; against PI3Kα (wild-type) it was under 50 nM. For `CS(=O)(=O)Nc1cncc(-c2cnc3c(N4CCOCC4)nc(-c4cnc(N)nc4)nc3c2)c1` [Example 96, N-(5-(2-(2-amino-pyrimidin-5-yl)-4-morpholinopyrido[3,2-d]-pyrimidin-7-yl)pyridin-3-yl)methanesulfonamide] the same measures were under 50 nM and under 50 nM. For `CC(O)C(=O)N1CCN(Cc2cnc3c(N4CCOCC4)nc(-c4cnc(N)nc4)nc3c2)CC1` (stereo not shown) [Example 11, 1-(4-((2-(2-aminopyrimidin-5-yl)-4-morpholinopyrido[3,2-d]pyrimidin-7-yl)-methyl)piperazin-1-yl)-2-hydroxypropan-1-one] the same measures were 201 to 10000 nM and 201 to 10000 nM. The compound `Nc1ncc(-c2nc(N3CCOCC3)c3ncc(-c4cccc(NC(=O)c5csnn5)c4)cc3n2)cn1` [Example 69, N-(3-(2-(2-amino-pyrimidin-5-yl)-4-morpholinopyrido[3,2-d]pyrimidin-7-yl)phenyl)-1,2,3-thiadiazole-4-carboxamide] yielded an IC50 against PI3Kα (wild-type) of under 50 nM. As for `Nc1ncc(-c2nc(N3CCOCC3)c3ncc(CN4CCNCC4)cc3n2)cn1` [Example 94, 5-(4-morpholino-7-(piperazin-1-yl-methyl)pyrido[3,2-d]-pyrimidin-2-yl)pyrimidin-2-amine], the figures for the IC50 at mTOR kinase and at PI3Kα (wild-type) were 201 to 10000 nM and 50 to 200 nM, respectively. Compound `Cc1ccc(C(=O)Nc2ccc(F)c(-c3cnc4c(N5CCOCC5)nc(-c5cnc(N)nc5)nc4c3)c2)o1` [Example 72, N-(3-(2-(2-amino-pyrimidin-5-yl)-4-morpholinopyrido[3,2-d]pyrimidin-7-yl)-4-fluorophenyl)-5-methylfuran-2-carboxamide] had an IC50 on PI3Kα (wild-type) of under 50 nM. Still for that read-out and setting: the value for `Nc1ncc(-c2nc(N3CCOCC3)c3ncc(-c4cccc(NC(=O)c5ccc(F)cc5)c4)cc3n2)cn1` [Example 74, N-(3-(2-(2-amino-pyrimidin-5-yl)-4-morpholinopyrido[3,2-d]pyrimidin-7-yl)phenyl)-4-fluorobenzamide] was under 50 nM; that for `CC(C)(C#N)C(=O)N1CCN(c2cccc(-c3cnc4c(N5CCOCC5)nc(-c5cnc(N)nc5)nc4c3)c2)CC1` [Example 107, 3-(4-(3-(2-(2-amino-pyrimidin-5-yl)-4-morpholinopyrido[3,2-d]-pyrimidin-7-yl)-phenyl)piperazin-1-yl)-2,2-dimethyl-3-oxopropanenitrile] was under 50 nM; that for `CS(=O)(=O)N1CCN(C(=O)c2cccc(-c3cnc4c(N5CCOCC5)nc(-c5cnc(N)nc5)nc4c3)c2)CC1` [Example 36, (3-(2-(2-aminopyrimidin-5-yl)-4-morpholino-pyrido[3,2-d]pyrimidin-7-yl)phenyl)(4-(methyl-sulfonyl)piperazin-1-yl)-methanone] was under 50 nM. Still for that read-out and setting: next, `Cc1ccc(C(=O)Nc2ccc(-c3cnc4c(N5CCOCC5)nc(-c5cnc(N)nc5)nc4c3)cc2)o1` [Example 73, N-(4-(2-(2-amino-pyrimidin-5-yl)-4-morpholinopyrido[3,2-d]pyrimidin-7-yl)phenyl)-5-methylfuran-2-carboxamide]: under 50 nM.
